Data: the supplement of paper PMC8671470

How the values were obtained:
Test in all cases: cell viability (% survival relative to DMSO control, bortezomib = 0%); higher = less cytotoxic
Conditions in all cases: 72 h
HEL = tested on: HEL
How it was run: (§1)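 Fifteen myeloid leukaemia cell lines were exposed to compounds at 1, 10, 100, 1000 or 10000 nM in 384-well plates for 72 h at 37 °C and 5% CO2. Viability was read by CellTiter-Glo luminescence and normalised, with vehicle as 100% and a 10 µM positive control as 0%. Values are percent survival averaged over duplicates.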

HL-60 = tested on: HL-60
How it was run: as §1

KU-812 = tested on: KU-812
How it was run: as §1

NOMO-1 = tested on: NOMO-1
How it was run: as §1

Compound	cell viability (HEL; 1 nM)	cell viability (HEL; 10 nM)	cell viability (HEL; 100 nM)	cell viability (HEL; 1000 nM)	cell viability (HEL; 10000 nM)	cell viability (HL-60; 1 nM)	cell viability (HL-60; 10 nM)	cell viability (HL-60; 100 nM)	cell viability (HL-60; 1000 nM)	cell viability (HL-60; 10000 nM)	cell viability (KU-812; 1 nM)	cell viability (KU-812; 10 nM)	cell viability (KU-812; 100 nM)	cell viability (KU-812; 1000 nM)	cell viability (KU-812; 10000 nM)	cell viability (NOMO-1; 1 nM)	cell viability (NOMO-1; 10 nM)	cell viability (NOMO-1; 100 nM)	cell viability (NOMO-1; 1000 nM)	cell viability (NOMO-1; 10000 nM)
OCCN1CCN(CCCN2c3ccccc3Sc3ccc(Cl)cc32)CC1 [Perphenazine]	120%	107%	90.1%	108%	107%	97.8%	133%	92%	103%	18.8%	93.8%	93.5%	103%	98%	30%	112%	93.1%	106%	108%	56.9%
C[C@]12O[C@H](C[C@]1(O)CO)n1c3ccccc3c3c4c(c5c6ccccc6n2c5c31)CNC4=O [Lestaurtinib]	95.5%	90.4%	33.2%	19.1%	4.54%	91.8%	77.6%	44.5%	17.5%	0.00654%	96%	89.8%	39.4%	43.1%	6%	100%	92.3%	68.1%	9.73%	0.0124%
O=c1c2ccccc2[se]n1-c1ccccc1 [Ebselen]	102%	97.3%	106%	96.5%	81.8%	107%	94.8%	102%	95.6%	77.6%	94.5%	104%	89.5%	99.4%	87.8%	93.7%	103%	97.3%	94.3%	102%
O=C(O)C(Cl)Cl [Dichloroacetate]	102%	102%	101%	97%	103%	96.5%	115%	104%	109%	120%	97.1%	90.9%	99%	108%	100%	101%	98.9%	102%	102%	103%
O=P(O)(O)C(O)(Cn1ccnc1)P(=O)(O)O [Zoledronic acid]	90.6%	92.7%	101%	94.9%	99.3%	84.3%	111%	105%	98.3%	111%	96.1%	95.7%	95.9%	94.6%	92.7%	98.8%	101%	95.6%	103%	94.6%
CN(C/C=C/C#CC(C)(C)C)Cc1cccc2ccccc12 [Terbinafine]	101%	91.1%	110%	96.8%	96.6%	104%	107%	118%	105%	93.8%	107%	95.3%	120%	94.8%	92.9%	99.3%	101%	96.7%	103%	96.9%
[N-]=[N+]=CC(=O)CC[C@H](N)C(=O)O [6-Diazo-5-oxo-L-norleucine]	98.6%	109%	98.5%	95.1%	96.6%	64.7%	83.2%	135%	97.5%	106%	95%	102%	110%	97.3%	104%	98.9%	99.9%	104%	97.1%	106%
Cc1ccc(S(=O)(=O)NC2c3ccccc3Oc3ccccc32)cc1 [AH-7614]	107%	96.9%	103%	107%	98.9%	103%	112%	87.8%	94.5%	86.2%	93.7%	101%	99.1%	97.7%	106%	102%	102%	104%	97.1%	103%
O=C1Nc2ccccc2/C1=C\NCCc1ccc(O)c(O)c1 [AC1NZZMF]	101%	99.5%	104%	112%	96.9%	76.8%	102%	82.5%	96.8%	86.8%	114%	113%	108%	110%	68.7%	105%	111%	98%	113%	99.9%
CCOc1ccc(Cc2cc([C@@H]3O[C@H](CO)[C@@H](O)[C@H](O)[C@H]3O)ccc2Cl)cc1 [Dapagliflozin]	99.9%	102%	75.6%	97.7%	122%	101%	86.8%	81.3%	94.4%	104%	85.7%	96.5%	90.5%	106%	81.3%	95.2%	101%	88.1%	104%	97%
C=CCc1ccc2c(c1O)C(=O)c1ccccc1C2=O [R162]	104%	101%	103%	106%	110%	98.1%	104%	95.6%	92.5%	101%	98.5%	89.9%	95.1%	125%	92.1%	99%	92.1%	96.2%	105%	100%
